The values that follow come from patent publication US9845321B2, “1,3-dihydro-2H-benzimidazol-2-one derivatives substituted with heterocycles as respiratory syncytial virus antiviral agents” (JANSSEN SCIENCES IRELAND UC, priority 2012, dated 2017).

For orientation: melting point means the temperature, or range, at which the solid turns liquid. A word on the CC50: it is the concentration at which the toxic effect on the cells reaches its halfway point. A high value points to lower toxicity to the cells.

The nature of one series: in vitro. It is filed as cell-based. To be noted: human. As to the method: (§1) Black 96-well clear-bottom microtiter plates (Corning, Amsterdam, The Netherlands) were filled in duplicate using a customized robot system with serial 4-fold dilutions of compound in a final volume of 50 μl culture medium [RPMI medium without phenol red, 10% FBS, 0.04% gentamycin (50 mg/ml) and 0.5% DMSO]. Then, 100 μl of a HeLa cell suspension (5×10^4 cells/ml) in culture medium was added to each well followed by the addition of 50 μl rgRSV224 (MOI=0.02) virus in culture medium using a multidrop dispenser (Thermo Scientific, Erembodegem, Belgium). rgRSV224 virus is an engineered virus that includes an additional GFP gene (Hallak et al, 2000) and was in-licensed from the NIH (Bethesda, Md., USA). Medium, virus- and mock-infected controls were included in each test. Cells were incubated at 37° C. in a 5% CO2 atmosphere. Three days post-virus exposure, viral replication was quantified by measuring GFP expression in the cells by a MSM laser microscope (Tibotec, Beerse, Belgium). The EC50 was defined as the 50% inhibitory concentration for GFP expression. In parallel, compounds were incubated for three days in a set of white 96-well microtitier plates (Corning) and the cytotoxicity of compounds in HeLa cells was determined by measuring the ATP content of the cells using the ATPlite kit (PerkinElmer, Zaventem, Belgium) according to the manufacturer's instructions. The CC50 was defined as the 50% concentration for cytotoxicity.

A further series deals with rgRSV224 virus. As to the kind of experiment: Antiviral activity: rgRSV224 (GFP-expressing RSV) replication in HeLa cells, GFP expression measured three days post-virus exposure. The series is classed as cell-based. To be noted: human respiratory syncytial virus, 72 h, read-out: WT activity pEC50 (converted). As to the method:
as §1

In the case of `CC(C)(C)OC(=O)N1CC(n2c(=O)n(Cc3cc4cc(Cl)ccc4n3CCCS(C)(=O)=O)c3cc(F)ccc32)C1` [Compound P2, tert-butyl 3-(3-((5-chloro-1-(3-(methylsulfonyl)propyl)-1H-indol-2-yl)methyl)-5-fluoro-2-oxo-2,3-dihydro-1H-benzo[d]imidazol-1-yl)azetidine-1-carboxylate], the melting point came out at 185 °C. It took 10000 nM to reach half-maximal cytotoxicity in “in vitro” (CC50 at 3 days). In the series with rgRSV224 virus, the EC50 was 12.6 nM.
The molecule `CC(C)CCn1c(Cn2c(=O)n(-c3nccs3)c3ccc(F)cc32)nc2nc(Cl)ccc21` [Compound P25, 3-((5-chloro-1-isopentyl-1H-imidazo[4,5-b]pyridin-2-yl)methyl)-5-fluoro-1-(thiazol-2-yl)-1H-benzo[d]imidazol-2(3H)-one] gave a melting point of 264.42 °C. Also, the CC50 at 3 days in the series “in vitro” is over 50100 nM. Moreover, in the series on rgRSV224 virus, the EC50 is 15.8 nM.
Turning to `CC(C)(C)OC(=O)N1CC(n2c(=O)n(Cc3cc4cc(Cl)ccc4n3CCCS(C)(=O)=O)c3cnccc32)C1` [Compound P1, tert-butyl-3-(3-((5-chloro-1-(3-(methylsulfonyl)propyl)-1H-indol-2-yl)methyl)-2-oxo-2,3-dihydro-1H-imidazo[4,5-c]pyridin-1-yl)azetidine-1-carboxylate], the melting point came to 195 °C. Further, in “in vitro”, the midpoint of cytotoxicity, the CC50 at 3 days, lay at 50100 nM. The EC50 with rgRSV224 virus was 5.01 nM.
Regarding `Cn1ccc(-n2c(=O)n(Cc3cc4cc(Cl)ccc4n3CCCCF)c3cnccc32)n1` [Compound P38, 3-((5-chloro-1-(4-fluorobutyl)-1H-indol-2-yl)methyl)-1-(1-methyl-1H-pyrazol-3-yl)-1H-imidazo[4,5-c]pyridin-2(3H)-one], the melting point amounted to 169.3 °C. In the series “in vitro”, this molecule came in with a CC50 at 3 days of over 100000 nM. Also, the EC50 with rgRSV224 virus is 1.58 nM.
On to `COc1ccc(-n2c(=O)n(Cc3cc4cc(Cl)ccc4n3CCCC#N)c3cnccc32)c(C)c1` [Compound P20, 4-(5-chloro-2-((1-(4-methoxy-2-methylphenyl)-2-oxo-1H-imidazo[4,5-c]pyridin-3(2H)-yl)methyl)-1H-indol-1-yl)butanenitrile], for which the melting point came to 172.59 °C. Further, in “in vitro”, the CC50 at 3 days was over 100000 nM. Moreover, in the series with rgRSV224 virus, the EC50 was 0.398 nM.
For `COc1ccc(-n2c(=O)n(Cc3cc4cc(Cl)ccc4n3CCCS(C)(=O)=O)c3cnccc32)cc1` [Compound P35, 3-((5-chloro-1-(3-(methylsulfonyl)propyl)-1H-indol-2-yl)methyl)-1-(4-methoxyphenyl)-1H-imidazo[4,5-c]pyridin-2(3H)-one], in that order: 215 °C, 31600 nM and 0.316 nM.
For `CS(=O)(=O)CCCn1c(Cn2c(=O)n(C3CN(S(C)(=O)=O)C3)c3ccncc32)cc2cc(Cl)ccc21` [Compound P5, 3-((5-chloro-1-(3-(methylsulfonyl)propyl)-1H-indol-2-yl)methyl)-1-(1-(methylsulfonyl)azetidin-3-yl)-1H-imidazo[4,5-c]pyridin-2(3H)-one] the same measures were 240 °C, 100000 nM and 1.58 nM.
For `COc1ccc(-n2c(=O)n(Cc3cc4cc(Cl)ccc4n3CCCC#N)c3cnccc32)cc1OC` [Compound P19, 4-(5-chloro-2-((1-(3,4-dimethoxyphenyl)-2-oxo-1H-imidazo[4,5-c]pyridin-3(2H)-yl)methyl)-1H-indol-1-yl)butanenitrile] the same measures were 176.51 °C, over 100000 nM and 0.126 nM.
Turning to `O=c1n(Cc2cc3cc(Cl)ccc3n2CCCCF)c2cnccc2n1-c1nccs1` [Compound P11, 3-((5-chloro-1-(4-fluorobutyl)-1H-indol-2-yl)methyl)-1-(thiazol-2-yl)-1H-imidazo[4,5-c]pyridin-2(3H)-one], the melting point was determined as 240 °C. In “in vitro”, this molecule yielded a CC50 at 3 days of over 25100 nM. Besides, in the series on rgRSV224 virus, the EC50 was 12.6 nM.
In turn, `COc1ccc(-n2c(=O)n(Cc3cc4cc(Cl)ccc4n3CCCCF)c3cnccc32)cc1` [Compound P32, 3-((5-chloro-1-(4-fluorobutyl)-1H-indol-2-yl)methyl)-1-(4-methoxy-phenyl)-1H-imidazo[4,5-c]pyridin-2(3H)-one] had a melting point of 163 °C. For the same molecule, the CC50 at 3 days in the series “in vitro” is 79400 nM. The EC50 in the series on rgRSV224 virus was 3.98 nM.
For `CC(C)(C)n1c(=O)n(Cc2cc3cc(Cl)ccc3n2CCCS(C)(=O)=O)c2cnccc21` [Compound P8, 1-tert-butyl-3-((5-chloro-1-(3-(methylsulfonyl)propyl)-1H-indol-2-yl)methyl)-1H-imidazo[4,5-c]pyridin-2(3H)-one], in that order: 226 °C, 39800 nM and 2.51 nM.
For `CC(=O)N1CC(n2c(=O)n(Cc3cc4cc(Cl)ccc4n3CCCS(C)(=O)=O)c3cnccc32)C1` [Compound P6, 1-(1-acetylazetidin-3-yl)-3-((5-chloro-1-(3-(methylsulfonyl)propyl)-1H-indol-2-yl)methyl)-1H-imidazo[4,5-c]pyridin-2(3H)-one], in that order: 252 °C, over 25100 nM and 3.98 nM.
For `N#CCCCn1c(Cn2c(=O)n(-c3ccncn3)c3ccncc32)cc2cc(Cl)ccc21` [Compound P24, 4-(5-chloro-2-((2-oxo-1-(pyrimidin-4-yl)-1H-imidazo[4,5-c]pyridin-3(2H)-yl)methyl)-1H-indol-1-yl)butanenitrile], in that order: 229.17 °C, over 50100 nM and 10 nM.
Consider `O=c1n(Cc2nc3nc(Cl)ccc3n2CCCCF)c2cnccc2n1-c1nccs1`, for which the melting point is 238 °C.
Take `N#CCCCn1c(Cn2c(=O)n(-c3ncco3)c3ccncc32)cc2cc(Cl)ccc21` [Compound P37, 4-(5-chloro-2-((1-(oxazol-2-yl)-2-oxo-1H-imidazo[4,5-c]pyridin-3(2H)-yl)methyl)-1H-indol-1-yl)butanenitrile]: the melting point amounted to 234 °C. The molecule further yielded a CC50 at 3 days in “in vitro” of over 100000 nM. The EC50 in the series on rgRSV224 virus is 1.58 nM.
For `N#CCCCn1c(Cn2c(=O)n(-c3nccs3)c3ccc(F)cc32)cc2cc(Cl)ccc21` [Compound P27, 4-(5-chloro-2-((6-fluoro-2-oxo-3-(thiazol-2-yl)-2,3-dihydro-1H-benzo[d]imidazol-1-yl)methyl)-1H-indol-1-yl)butanenitrile], the melting point was 238.29 °C. The molecule also displayed a CC50 at 3 days in the series “in vitro” of over 100000 nM. Besides, the EC50 in the series with rgRSV224 virus was 31.6 nM.
For `Cn1ccc(-n2c(=O)n(Cc3cc4cc(Cl)ccc4n3CCCC#N)c3cnccc32)n1` [Compound P36, 4-(5-chloro-2-((1-(1-methyl-1H-pyrazol-3-yl)-2-oxo-1H-imidazo[4,5-c]pyridin-3(2H)-yl)methyl)-1H-indol-1-yl)butanenitrile], in that order: 244 °C, 63100 nM and 1.58 nM.
As to `CC(C)CCn1c(Cn2c(=O)n(-c3nccs3)c3ccncc32)nc2nc(Cl)ccc21` [Compound P22, 3-((5-chloro-1-isopentyl-1H-imidazo[4,5-b]pyridin-2-yl)methyl)-1-(thiazol-2-yl)-1H-imidazo[4,5-c]pyridin-2(3H)-one], the melting point came to 231.23 °C. This molecule had a CC50 at 3 days in “in vitro” of 25100 nM. Also, the EC50 with rgRSV224 virus is 3.98 nM.
In the series “in vitro”, `COCCOc1ccc(-n2c(=O)n(Cc3cc4cc(Cl)ccc4n3CCCC#N)c3cnccc32)cc1` [Compound P28, 4-(5-chloro-2-((1-(4-(2-methoxyethoxy)phenyl)-2-oxo-1H-imidazo[4,5-c]pyridin-3(2H)-yl)methyl)-1H-indol-1-yl)butanenitrile] came in with a CC50 at 3 days of over 100000 nM. Moreover, the EC50 in the series on rgRSV224 virus is 0.2 nM.
In the series “in vitro”, `COc1ccc(-n2c(=O)n(Cc3cc4cc(Cl)ccc4n3CCCC#N)c3cnccc32)c(F)c1` [Compound P45, 4-(5-chloro-2-((1-(2-fluoro-4-methoxyphenyl)-2-oxo-1H-imidazo[4,5-c]pyridin-3(2H)-yl)methyl)-1H-indol-1-yl)butanenitrile] gave a 50% cytotoxic concentration (CC50) at 3 days of 15800 nM. Also, the EC50 with rgRSV224 virus was 1 nM.
For `CC1(n2c(=O)n(Cc3cc4cc(Cl)ccc4n3CCCS(C)(=O)=O)c3cnccc32)CC1` [Compound P7, 3-((5-chloro-1-(3-(methylsulfonyl)propyl)-1H-indol-2-yl)methyl)-1-(1-methylcyclopropyl)-1H-imidazo[4,5-c]pyridin-2(3H)-one] the same measures were 50100 nM and 0.501 nM.
For `CS(=O)(=O)c1ccc(-n2c(=O)n(Cc3cc4cc(Cl)ccc4n3CCCC#N)c3cnccc32)cc1` [Compound P41, 4-(5-chloro-2-((1-(4-(methylsulfonyl)phenyl)-2-oxo-1H-imidazo[4,5-c]pyridin-3(2H)-yl)methyl)-1H-indol-1-yl)butanenitrile] the same measures were over 100000 nM and 0.2 nM.
For `CS(=O)(=O)CCCn1c(Cn2c(=O)n(-c3ccc(Cl)cc3)c3ccncc32)cc2cc(Cl)ccc21` [Compound P30, 3-((5-chloro-1-(3-(methylsulfonyl)propyl)-1H-indol-2-yl)methyl)-1-(4-chlorophenyl)-1H-imidazo[4,5-c]pyridin-2(3H)-one], in that order: over 100000 nM and 1.58 nM.
